The supplement of paper PMC10307832

What was measured:
Test in all cases: relative viability (nuclei count vs DMSO), 5 days (fraction); higher = more cells survive
[1] = compound: CNC(=O)c1ccccc1Sc1ccc2c(/C=C/c3ccccn3)n[nH]c2c1 [Axitinib] + Cc1nc(NC(=O)N2CCC[C@H]2C(N)=O)sc1-c1ccnc(C(C)(C)C(F)(F)F)c1 [Alpelisib] (partner 2 µM)
In short: (§1)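 A single step with final 0.05% Triton X-100, 1% formaldehyde and 1 ug/ml Hoechst fixed the cells and stained nuclei 5 days after treatment. Lung cancer cell lines in 1536-well plates had been treated by pin tool the day after seeding with one drug alone or a fixed anchor-drug dose plus five library-drug doses (not always all listed) in √10 steps, and nuclei were counted on 4× images. Relative viability is the ratio of nuclei in treated wells to nuclei in vehicle wells, taken as the median of duplicate plates.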

[2] = compound: CNC(=O)c1ccccc1Sc1ccc2c(/C=C/c3ccccn3)n[nH]c2c1 [Axitinib] + Nc1ncn([C@H]2C[C@H](O)[C@@H](CO)O2)c(=O)n1 [Decitabine] (partner 2 µM)
In short: as §1

[3] = compound: Nc1nc(Nc2ccc3c(c2)CC[C@@H](N2CCCC2)CC3)nn1-c1cc2c(nn1)-c1ccccc1CCC2 [Bemcentinib] + CC(=O)c1c(C)c2cnc(Nc3ccc(N4CCNCC4)cn3)nc2n(C2CCCC2)c1=O [Palbociclib] (partner 0.5 µM)
In short: as §1

[4] = compound: Nc1nc(Nc2ccc3c(c2)CC[C@@H](N2CCCC2)CC3)nn1-c1cc2c(nn1)-c1ccccc1CCC2 [Bemcentinib] + O=C(CCCCCCC(=O)Nc1ccccc1)NO [Vorinostat] (partner 1 µM)
In short: as §1

Row | Cell Line | relative viability ([1]; first compound 0.005 µM) | relative viability ([1]; first compound 0.01581 µM) | relative viability ([1]; first compound 0.05 µM) | relative viability ([1]; first compound 0.1581 µM) | relative viability ([1]; first compound 0.5 µM) | relative viability ([2]; first compound 0.005 µM) | relative viability ([2]; first compound 0.01581 µM) | relative viability ([2]; first compound 0.05 µM) | relative viability ([2]; first compound 0.1581 µM) | relative viability ([2]; first compound 0.5 µM) | relative viability ([3]; first compound 0.04 µM) | relative viability ([3]; first compound 0.1265 µM) | relative viability ([3]; first compound 0.4 µM) | relative viability ([3]; first compound 1.265 µM) | relative viability ([3]; first compound 4 µM) | relative viability ([4]; first compound 0.04 µM) | relative viability ([4]; first compound 0.1265 µM) | relative viability ([4]; first compound 0.4 µM) | relative viability ([4]; first compound 1.265 µM) | relative viability ([4]; first compound 4 µM)
1 | NCI-H460 | 0.569 | 0.571 | 0.54 | 0.549 | 0.821 | 0.585 | 0.464 | 0.528 | 0.535 | 0.585 | 0.241 | 0.147 | 0.221 | 0.301 | 0.199 | 0.696 | 0.981 | 1.21 | 0.838 | 0.73
2 | NCI-H1395 | 1.22 | 1.02 | 1.21 | 1.07 | 1.18 | 0.795 | 0.681 | 0.622 | 0.746 | 0.751 | – | 0.621 | 0.645 | 0.64 | 0.631 | – | 0.681 | 0.674 | 0.716 | 0.634
3 | NCI-H2085 | 1.05 | 0.85 | 0.979 | 0.866 | 0.947 | 0.578 | 0.54 | 0.614 | 0.551 | 0.561 | 0.456 | 0.449 | 0.44 | 0.46 | 0.47 | 0.762 | 0.822 | 0.778 | 0.795 | 0.764
4 | HCC-366 | 0.616 | 0.482 | 0.505 | 0.387 | 0.619 | 0.361 | 0.356 | 0.393 | 0.323 | 0.423 | 0.398 | 0.508 | 0.528 | 0.443 | 0.519 | 0.32 | 0.43 | 0.441 | 0.303 | 0.433
5 | NCI-H322M | 0.834 | 0.688 | 0.729 | 0.944 | 0.893 | 0.715 | 0.667 | 0.673 | 0.675 | 0.686 | 0.49 | 0.481 | 0.483 | 0.537 | 0.557 | 0.863 | 0.931 | 0.836 | 0.952 | 0.899
6 | 201T | 1.01 | 0.959 | 0.947 | 0.987 | 0.972 | 0.866 | 0.803 | 0.851 | 0.872 | 0.878 | 0.333 | 0.314 | 0.392 | 0.363 | 0.389 | 0.962 | 0.981 | 1.04 | 0.938 | 1.06
7 | SK-LU-1 | 1.11 | 1.32 | 1.05 | 1.06 | 1.63 | 0.64 | 0.726 | 0.618 | 0.582 | 0.598 | 0.338 | 0.446 | 0.393 | 0.487 | 0.37 | 0.801 | 0.762 | 0.883 | 0.887 | 0.746
8 | NCI-H1755 | 0.987 | 0.84 | 0.922 | 0.878 | 0.915 | 0.759 | 0.715 | 0.704 | 0.726 | 0.709 | 0.43 | 0.462 | 0.425 | 0.479 | 0.439 | 0.783 | 0.808 | 0.754 | 0.823 | 0.923
9 | NCI-H1666 | 1.12 | 0.918 | 0.942 | 1.05 | 1.1 | 0.751 | 0.747 | 0.731 | 0.73 | 0.75 | 0.656 | 0.645 | 0.675 | 0.683 | 0.672 | 1.02 | 1.24 | 1.07 | 1 | 0.998
10 | PC-3 [JPC-3] | 1.09 | – | 1 | 1.04 | 1.12 | 0.865 | – | 0.826 | 0.889 | 0.824 | 0.548 | 0.577 | 0.522 | 0.592 | 0.551 | 0.898 | 0.735 | 0.784 | 0.725 | 0.752
11 | NCI-H358 | 1.03 | 0.898 | 0.806 | 0.738 | 1.05 | 0.226 | 0.222 | 0.221 | 0.214 | 0.198 | 0.135 | 0.143 | 0.143 | 0.137 | 0.135 | 0.665 | 0.745 | 0.701 | 0.806 | 0.839
12 | NCI-H1975 | 0.777 | 0.73 | 0.766 | 0.667 | 0.74 | 0.411 | 0.407 | 0.389 | 0.388 | 0.395 | 0.561 | 0.827 | 0.665 | 0.567 | 0.746 | 0.709 | 0.805 | 0.776 | 0.808 | 0.777
13 | LC-2-ad | 0.942 | 0.859 | 0.83 | 0.907 | 0.903 | 0.829 | 0.776 | 0.855 | 0.804 | 0.779 | 0.557 | 0.49 | 0.524 | 0.565 | 0.516 | 0.705 | 0.805 | 0.73 | 0.726 | 0.737
14 | NCI-H1993 | 0.664 | 0.643 | 0.655 | 0.784 | 0.693 | 0.709 | 0.634 | 0.609 | 0.631 | 0.668 | 0.62 | 0.723 | 0.718 | 0.651 | 0.708 | 0.739 | 0.716 | 1.07 | 0.981 | 1.05
15 | H3255 | 0.648 | 0.611 | 0.632 | 0.724 | 0.702 | 0.736 | – | 0.559 | 0.508 | 0.535 | 0.283 | 0.305 | 0.297 | 0.275 | 0.334 | – | 0.755 | 0.772 | 0.784 | 0.772
16 | NCI-H727 | 0.612 | 0.524 | 1.43 | 0.538 | 0.783 | 0.962 | 0.842 | 0.835 | 1.01 | 0.837 | 0.625 | 0.663 | 0.637 | 0.696 | 0.667 | 1.02 | 1.14 | 1.18 | 0.858 | 1.2
